Measured values reported in patent US9179678B2, “Substituted [1,2,4]triazoles and substituted tetrazoles as herbicides” (SYNGENTA LIMITED, priority 2012, dated 2015).

Tests used:
Format in all cases: in vivo
[1] = test system: Amaranthus retoflexus (AMARE); experiment: Pre-emergence glasshouse herbicide test; details: PRE Application, after 13 days
[2] = test system: Alopecurus myosuroides (ALOMY); experiment: Post-emergence glasshouse herbicide test; details: POST Application, after 13 days
How it was run: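 Alopecurus myosuroides seeds were sown in pots of standard soil and grown for 8 days in a glasshouse at 24/16° C. day/night, 14 hours light and 65% humidity. The plants were then sprayed post-emergence with an aqueous solution made from the active ingredient in acetone/water (50:50) containing 0.5% Tween 20. Percentage plant damage was scored 13 days later.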

Solanum nigrum (SOLNI) [3] = experiment: Post-emergence glasshouse herbicide test; details: POST Application, after 13 days
How it was run: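 Solanum nigrum seeds were sown in pots of standard soil and grown for 8 days in a glasshouse at 24/16° C. day/night, 14 hours light and 65% humidity. Plants were then sprayed post-emergence with the active ingredient formulated in acetone/water (50:50) containing 0.5% Tween 20. They were grown on under the same conditions with twice-daily watering, and percentage plant damage was scored after 13 days.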

[4] = test system: Echinochloa crus-galli (ECHCG); experiment: Pre-emergence glasshouse herbicide test; details: PRE Application, after 13 days
[5] = test system: Ipomoea hederacea (IPOHE); experiment: Pre-emergence glasshouse herbicide test; details: PRE Application, after 13 days
[6] = test system: Echinochloa crus-galli (ECHCG); experiment: Post-emergence glasshouse herbicide test; details: POST Application, after 13 days
[7] = test system: Amaranthus retoflexus (AMARE); experiment: Post-emergence glasshouse herbicide test; details: POST Application, after 13 days
[8] = test system: Alopecurus myosuroides (ALOMY); experiment: Pre-emergence glasshouse herbicide test; details: PRE Application, after 13 days
How it was run: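 Alopecurus myosuroides seeds were sown in standard soil in pots and kept one day in a glasshouse at 24/16° C. day/night, 14 hours light and 65% humidity. The soil was then sprayed pre-emergence with the active ingredient in acetone/water (50:50) containing 0.5% Tween 20. Plants grew on, watered twice daily, and percentage damage was scored 13 days later.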

Solanum nigrum (SOLNI) [9] = experiment: Pre-emergence glasshouse herbicide test; details: PRE Application, after 13 days
[10] = test system: Ipomoea hederacea (IPOHE); experiment: Post-emergence glasshouse herbicide test; details: POST Application, after 13 days
Setaria faberi (SETFA) [11] = experiment: Post-emergence glasshouse herbicide test; details: POST Application, after 13 days
How it was run: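 Setaria faberi seeds were sown in standard soil in pots and grown for 8 days in a glasshouse at 24/16° C. day/night, 14 hours light and 65% humidity. Plants were then sprayed post-emergence with the active ingredient in acetone/water (50:50) containing 0.5% Tween 20, regrown under the same conditions with twice-daily watering, and scored for percentage damage after 13 days.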

Setaria faberi (SETFA) [12] = experiment: Pre-emergence glasshouse herbicide test; details: PRE Application, after 13 days

For `Cn1nnnc1NC(=O)c1nc2ccc(F)cc2n(-c2ccccc2)c1=O` [Compound 5.010], which “percentage damage caused to the plant, AMARE” value ([1]; applied at 250 g/ha) is on record?
The value was 5 (5=80-100%).

What about the “percentage damage caused to the plant, ALOMY” value ([2]; applied at 250 g/ha) of the same compound?
Its value is 1 (1=0-19%).

And the “percentage damage caused to the plant, SOLNI” value (Solanum nigrum (SOLNI) [3]; applied at 250 g/ha)?
Its value is 5 (5=80-100%).

What about the “percentage damage caused to the plant, ECHCG” value ([4]; applied at 250 g/ha) of the same compound?
Its value is 1 (1=0-19%).

What about the “percentage damage caused to the plant, IPOHE” value ([5]; applied at 250 g/ha) of the same compound?
The value was 2 (2=20-39%).

And the “percentage damage caused to the plant, ECHCG” value ([6]; applied at 250 g/ha)?
The value was 3 (3=40-59%).

What about the “percentage damage caused to the plant, AMARE” value ([7]; applied at 250 g/ha) of the same compound?
Its value is 5 (5=80-100%).

What about the “percentage damage caused to the plant, ALOMY” value ([8]; applied at 250 g/ha) of the same compound?
The value was 1 (1=0-19%).

And the “percentage damage caused to the plant, SOLNI” value (Solanum nigrum (SOLNI) [9]; applied at 250 g/ha)?
Its value is 4 (4=60-79%).

And the “percentage damage caused to the plant, IPOHE” value ([10]; applied at 250 g/ha)?
The value was 5 (5=80-100%).

And the “percentage damage caused to the plant, SETFA” value (Setaria faberi (SETFA) [11]; applied at 250 g/ha)?
The value was 4 (4=60-79%).

And the “percentage damage caused to the plant, SETFA” value (Setaria faberi (SETFA) [12]; applied at 250 g/ha)?
Its value is 1 (1=0-19%).

With `Cn1nnnc1NC(=O)c1nc2ccccc2n(-c2ccoc2)c1=O` [Compound 5.013] as the compound, how does the “percentage damage caused to the plant, AMARE” value ([1]; applied at 250 g/ha) read?
Its value is 5 (5=80-100%).

And the “percentage damage caused to the plant, ALOMY” value ([2]; applied at 250 g/ha)?
The value was 1 (1=0-19%).

And the “percentage damage caused to the plant, SOLNI” value (Solanum nigrum (SOLNI) [3]; applied at 250 g/ha)?
Its value is 5 (5=80-100%).

And the “percentage damage caused to the plant, ECHCG” value ([4]; applied at 250 g/ha)?
Its value is 2 (2=20-39%).

And the “percentage damage caused to the plant, IPOHE” value ([5]; applied at 250 g/ha)?
The value was 4 (4=60-79%).

And the “percentage damage caused to the plant, ECHCG” value ([6]; applied at 250 g/ha)?
Its value is 1 (1=0-19%).

And the “percentage damage caused to the plant, AMARE” value ([7]; applied at 250 g/ha)?
The value was 5 (5=80-100%).

And the “percentage damage caused to the plant, ALOMY” value ([8]; applied at 250 g/ha)?
The value was 1 (1=0-19%).

And the “percentage damage caused to the plant, SOLNI” value (Solanum nigrum (SOLNI) [9]; applied at 250 g/ha)?
Its value is 5 (5=80-100%).

What about the “percentage damage caused to the plant, IPOHE” value ([10]; applied at 250 g/ha) of the same compound?
Its value is 4 (4=60-79%).

And the “percentage damage caused to the plant, SETFA” value (Setaria faberi (SETFA) [11]; applied at 250 g/ha)?
Its value is 1 (1=0-19%).

What about the “percentage damage caused to the plant, SETFA” value (Setaria faberi (SETFA) [12]; applied at 250 g/ha) of the same compound?
Its value is 2 (2=20-39%).

Which “percentage damage caused to the plant, AMARE” value ([1]; applied at 500 g/ha) does the source give for `Cc1cc(-n2c(=O)c(C(=O)Nc3nnnn3C)nc3ccccc32)ccc1F` [Compound 5.028] here?
The value was 5 (5=80-100%).

What about the “percentage damage caused to the plant, ALOMY” value ([2]; applied at 500 g/ha) of the same compound?
The value was 4 (4=60-79%).

And the “percentage damage caused to the plant, SOLNI” value (Solanum nigrum (SOLNI) [3]; applied at 500 g/ha)?
The value was 5 (5=80-100%).

And the “percentage damage caused to the plant, ECHCG” value ([4]; applied at 500 g/ha)?
Its value is 5 (5=80-100%).

And the “percentage damage caused to the plant, IPOHE” value ([5]; applied at 500 g/ha)?
The value was 5 (5=80-100%).

And the “percentage damage caused to the plant, ECHCG” value ([6]; applied at 500 g/ha)?
The value was 5 (5=80-100%).

What about the “percentage damage caused to the plant, AMARE” value ([7]; applied at 500 g/ha) of the same compound?
The value was 5 (5=80-100%).

And the “percentage damage caused to the plant, ALOMY” value ([8]; applied at 500 g/ha)?
Its value is 3 (3=40-59%).

And the “percentage damage caused to the plant, SOLNI” value (Solanum nigrum (SOLNI) [9]; applied at 500 g/ha)?
The value was 5 (5=80-100%).

What about the “percentage damage caused to the plant, IPOHE” value ([10]; applied at 500 g/ha) of the same compound?
Its value is 5 (5=80-100%).

What about the “percentage damage caused to the plant, SETFA” value (Setaria faberi (SETFA) [11]; applied at 500 g/ha) of the same compound?
Its value is 5 (5=80-100%).

What about the “percentage damage caused to the plant, SETFA” value (Setaria faberi (SETFA) [12]; applied at 500 g/ha) of the same compound?
Its value is 5 (5=80-100%).
